Laboratory results published in ChEMBL document CHEMBL1124701, “Some benzyl-substituted imidazoles, triazoles, tetrazoles, pyridinethiones, and structural relatives as multisubstrate inhibitors of dopamine beta-hydroxylase. 4. Structure-activity relationships at the copper binding site” (J Med Chem, 1990).

Each compound was assayed against T1, Dopamine beta-hydroxylase (Bos taurus, UniProt P15101) (assay: Inhibitory activity was determined against bovine dopamine beta-hydroxylase (DBH)).
T1 sequence (P15101 whole entry): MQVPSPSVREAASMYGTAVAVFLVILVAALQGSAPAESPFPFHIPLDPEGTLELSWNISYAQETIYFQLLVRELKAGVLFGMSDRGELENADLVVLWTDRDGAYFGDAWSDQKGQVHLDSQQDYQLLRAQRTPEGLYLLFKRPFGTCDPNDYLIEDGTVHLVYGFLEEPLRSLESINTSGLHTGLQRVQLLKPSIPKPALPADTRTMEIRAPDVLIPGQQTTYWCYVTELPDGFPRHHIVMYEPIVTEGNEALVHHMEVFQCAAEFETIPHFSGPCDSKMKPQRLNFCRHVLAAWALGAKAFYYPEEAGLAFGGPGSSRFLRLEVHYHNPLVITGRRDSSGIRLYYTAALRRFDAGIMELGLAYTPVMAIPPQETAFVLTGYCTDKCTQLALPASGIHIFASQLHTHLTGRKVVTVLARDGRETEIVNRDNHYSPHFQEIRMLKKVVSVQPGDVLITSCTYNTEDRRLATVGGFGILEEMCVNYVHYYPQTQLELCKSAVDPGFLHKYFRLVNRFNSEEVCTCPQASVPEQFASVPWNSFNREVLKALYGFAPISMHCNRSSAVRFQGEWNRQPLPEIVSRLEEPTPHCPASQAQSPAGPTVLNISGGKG

**Q.** How did the IC50 turn out when Sc1ncnn1Cc1ccccc1 was run?
**A.** 75 µM

**Q.** Which IC50 does the source give for O=C(O)c1nccn1Cc1ccc(O)cc1 here?
**A.** 112 µM

**Q.** How did the IC50 turn out when CSc1nccn1CCCc1ccc(O)cc1 was run?
**A.** 79 µM

**Q.** How did the IC50 turn out when Fc1cc(F)cc(Cn2nnnc2S)c1 was run?
**A.** 1.54 µM

**Q.** Which IC50 does the source give for O=C(O)c1nccn1Cc1ccccc1 here?
**A.** 57 µM

**Q.** How did the IC50 turn out when NCc1nccn1Cc1ccc(O)cc1 was run?
**A.** 165 µM

**Q.** How did the IC50 turn out when Fc1cc(F)cc(Cn2nc[nH]c2=S)c1 was run?
**A.** 6.2 µM

**Q.** How did the IC50 turn out when Fc1cccc(Cn2cnnc2S)c1 was run?
**A.** 1.9 µM

**Q.** Which IC50 does the source give for Fc1cccc(CN2CCNC2=S)c1 here?
**A.** 3.7 µM

**Q.** For Fc1cccc(Cn2ncnc2S)c1, which IC50 is on record?
**A.** 15 µM

**Q.** How did the IC50 turn out when Fc1cc(F)cc(Cc2cccnc2S)c1 was run?
**A.** 13.4 µM

**Q.** Fc1cc(F)cc(Cn2cccnc2=S)c1 was tested. Which IC50 did it give?
**A.** 2.8 µM

**Q.** For Sc1nnnn1Cc1ccccc1, which IC50 is on record?
**A.** 16 µM

**Q.** Which IC50 does the source give for Fc1cc(F)cc(CN2CCN=C2S)c1 here?
**A.** 1.4 µM

**Q.** How did the IC50 turn out when Oc1c(F)cc(Cn2cnnc2S)cc1F was run?
**A.** 0.035 µM

Each compound was assayed against T2, Dopamine beta-hydroxylase (Bos taurus) (UniProt P15101) (assay: Percent inhibition against bovine dopamine beta-hydroxylase (DBH) at 10e-4 M concentration).
T2 sequence (whole entry): T1 sequence (P15101 whole entry)

**Q.** Which inhibition does the source give for O=C(O)Cc1nccn1Cc1ccccc1 here?
**A.** 0%

**Q.** With O/N=C/c1nccn1Cc1ccccc1 as the compound, how does the inhibition read?
**A.** 10%

**Q.** With OCc1nccn1Cc1ccccc1 as the compound, how does the inhibition read?
**A.** 0%

**Q.** With Nc1nccn1Cc1ccc(O)cc1 as the compound, how does the inhibition read?
**A.** 4%

**Q.** O=C(O)Cc1nccn1Cc1ccc(O)cc1 was tested. Which inhibition did it give?
**A.** 0%

**Q.** Which inhibition does the source give for Oc1ccc(Cn2ccnc2)cc1 here?
**A.** 17%

Each compound was assayed against T2, Dopamine beta-hydroxylase (Bos taurus) (assay: Percent inhibition against bovine dopamine beta-hydroxylase (DBH) at 10e-5 M concentration).

**Q.** Which inhibition does the source give for S=C1NCCN1Cc1ccccc1 here?
**A.** 5%

**Q.** For Sc1ncccc1Cc1ccccc1, which inhibition is on record?
**A.** 26%

**Q.** For Fc1cccc(Cn2cccnc2=S)c1, which inhibition is on record?
**A.** 15%

**Q.** For Fc1cccc(Cc2cccnc2S)c1, which inhibition is on record?
**A.** 34%

**Q.** With Sc1cnnn1Cc1ccccc1 as the compound, how does the inhibition read?
**A.** 0%

**Q.** For S=c1ncccn1Cc1ccccc1, which inhibition is on record?
**A.** 5%
